One experiment relates to HBV. Put plainly: HepAD38 antiviral assay: reduction of viral product accumulation (virion DNA by qPCR, HBsAg or HBeAg by ELISA). Format: cell-based, hepatitis B virus. The following applies: HepAD38 cells, five days after compound addition; concentration reducing viral product accumulation by 50% relative to no drug controls; read-out: HepAD38 EC50. In outline:
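EC50 values represent 50% reduction of viral product accumulation in lysates or supernatants relative to untreated controls, with virion DNA read by qPCR and HBsAg/HBeAg by ELISA. Measurements followed 5 days of treatment, or 8 days with compound renewed on d2 and d5. Cells were tetracycline-depleted HepAD38 at 35,000/well, dosed with a 1:200 dilution of DMSO stocks.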
On the technique in general: In qPCR the cycle at which signal appears reflects the starting amount.
Consider `O=C(Nc1cc(F)c(F)c(F)c1)c1ccc(Cl)c(S(=O)(=O)C2CC3CCC(C2)C3=O)c1` (stereo not drawn) [Example 206], for which the concentration for a half-maximal effect (EC50) (in general, the concentration that produces a half-maximal response) was over 400 nM.
Take `O=C(Nc1cc(F)c(F)c(F)c1)c1ccc(Cl)c(S(=O)(=O)[C@H]2CC3CCC(C2)[C@@H]3O)c1` [Example 360]: the EC50 was under 100 nM.

The experiment is the same for the next values; noted with them: Hepatitis B virus, HePAD38, 120 h, HepAD38 cells, five days after compound addition; concentration reducing viral product accumulation by 50% relative to no drug controls; read-out: HepAD38 EC50.
For the molecule `CN1OCC(C#N)C1[C@]1(O)CC2CC[C@@H](C1)[C@H]2S(=O)(=O)c1cc(C(=O)Nc2cc(F)c(F)c(F)c2)ccc1Cl` (stereo partly drawn) [Example 200], the EC50 is 100 to 400 nM.
On the same count and under the same terms, the result for `O=C(Nc1cc(F)c(F)c(F)c1)c1ccc(Cl)c(S(=O)(=O)C[C@H]2C[C@@H](O)C2)c1` [Example 105] reads 100 to 400 nM; that for `O=C(Nc1cc(F)c(F)c(F)c1)c1ccc(Cl)c(S(=O)(=O)C2C[C@H]3CC[C@@H](C2)O3)c1` (stereo partly drawn) [Example 356], 100 to 400 nM.
Same read-out and setting: with `CC(C)(C)OC(=O)N[C@H]1CC[C@H](S(=O)(=O)c2cc(C(=O)Nc3cc(F)c(F)c(F)c3)ccc2Cl)CC1` [Example 54] the figure was 100 to 400 nM.
Still for that read-out and setting: with `O=C(Nc1cc(F)c(F)c(F)c1)c1ccc(Cl)c(S(=O)(=O)[C@H]2C3CC[C@H]2C[C@](O)(COC/C=N/O)C3)c1` [Example 320] the figure was under 100 nM; with `C[C@@]1(O)CC2CC[C@@H](C1)[C@H]2S(=O)(=O)c1cc(C(=O)Nc2cc(F)c(F)c(F)c2)ccc1Cl` [Example 247], under 100 nM; with `CC(C)(C)O/N=C/[C@]1(O)CC2CC[C@@H](C1)[C@H]2S(=O)(=O)c1cc(C(=O)Nc2cc(F)c(F)c(F)c2)ccc1Cl` [Example 203], under 100 nM.
`C[C@H](N)C(=O)O[C@H]1CC[C@H](S(=O)(=O)c2cc(C(=O)Nc3cc(F)c(F)c(F)c3)ccc2Cl)CC1` [Example 6]: the EC50 fell in the range of 100 to 400 nM.
Still for that read-out and setting: the result for `COC(=O)C1CON(Cc2ccccc2)C1[C@]1(O)CC2CC[C@@H](C1)[C@H]2S(=O)(=O)c1cc(C(=O)Nc2cc(F)c(F)c(F)c2)ccc1Cl` (stereo partly drawn) [Example 213] reads over 400 nM; that for `O=C(Nc1cc(F)c(F)c(F)c1)c1ccc(Cl)c(S(=O)(=O)C2CCCC(O)CC2)c1` (stereo not drawn) [Example 125], 100 to 400 nM.
On the same count and under the same terms, the result for `C=CCC1(S(=O)(=O)c2cc(C(=O)Nc3cc(F)c(F)c(F)c3)ccc2Cl)CCCCC1` [Example 81] reads over 400 nM; that for `CC([C@H]1C[C@@H](O)C1)S(=O)(=O)c1cc(C(=O)Nc2cc(F)c(F)c(F)c2)ccc1Cl` (stereo partly drawn) [Example 117], 100 to 400 nM.
Still for that read-out and setting: with `CC1(C)O[C@@H]2[C@@H](CSc3cc(C(=O)Nc4cc(F)c(F)c(F)c4)ccc3Cl)OC(=O)[C@]2(C)O1` [Example 90] the figure was over 400 nM; with `O=C(Nc1cc(F)c(F)c(F)c1)c1ccc(Cl)c(S[C@H]2CC[C@H](O)CC2)c1` [Example 10], 100 to 400 nM; with `O=C(Nc1cc(F)c(F)c(F)c1)c1ccc(Cl)c(S(=O)(=O)[C@H]2C3CC[C@H]2C[C@@](O)(C#Cc2ccccc2)C3)c1` [Example 168], over 400 nM.
Take `CC(C)(C)OC(=O)N[C@H]1CC[C@H]([S+]([O-])c2cc(C(=O)Nc3cc(F)c(F)c(F)c3)ccc2Cl)CC1` (stereo partly drawn) [Example 55]: the EC50 is over 400 nM.
As for `C[C@H](N)C(=O)NC[C@]1(O)C2CCC1C[C@@H](S(=O)(=O)c1cc(C(=O)Nc3cc(F)c(F)c(F)c3)ccc1Cl)C2` [Example 351], the EC50 is 100 to 400 nM.
On the same count and under the same terms, with `Cn1ccnc1[C@]1(O)C2CCC1C[C@@H](S(=O)(=O)c1cc(C(=O)Nc3cc(F)c(F)c(F)c3)ccc1Cl)C2` [Example 362] the figure was under 100 nM; with `O=C(Nc1cc(F)c(F)c(F)c1)c1ccc(Cl)c(S(=O)(=O)[C@H]2C3CC[C@H]2C[C@](O)(C#Cc2ccncc2)C3)c1` [Example 169], under 100 nM.
On the same count and under the same terms, the result for `O=C(O)/C=C/[C@]1(O)CC2CC[C@@H](C1)[C@H]2S(=O)(=O)c1cc(C(=O)Nc2cc(F)c(F)c(F)c2)ccc1Cl` [Example 225] reads over 400 nM; that for `C[C@]1(O)C(=O)O[C@H](CS(=O)(=O)c2cc(C(=O)Nc3cc(F)c(F)c(F)c3)ccc2Cl)[C@H]1O` [Example 99], over 400 nM; that for `CC(CO)NCCOC[C@]1(O)CC2CC[C@@H](C1)[C@H]2S(=O)(=O)c1cc(C(=O)Nc2cc(F)c(F)c(F)c2)ccc1Cl` (stereo partly drawn) [Example 358], 100 to 400 nM.
On the same count and under the same terms, with `O=C(Nc1cc(F)c(F)c(F)c1)c1ccc(Cl)c(S(=O)(=O)[C@H]2C3CC[C@H]2C[C@](O)(/C=N/OCc2ccc([N+](=O)[O-])cc2)C3)c1` [Example 234] the figure was 100 to 400 nM; with `O=C(Nc1cc(F)c(F)c(F)c1)c1ccc(Cl)c(S(=O)(=O)[C@H]2C3CC[C@H]2C[C@](O)(/C=N/OCc2cccc(F)c2)C3)c1` [Example 236], 100 to 400 nM; with `O=C1CCC(S(=O)(=O)c2cc(C(=O)Nc3cc(F)c(F)c(F)c3)ccc2Cl)C1` (stereo not drawn) [Example 57], over 400 nM.
Consider `O=C(Nc1cc(F)cc(F)c1)c1ccc(Cl)c(S(=O)(=O)[C@H]2CC[C@H](O)CC2)c1` [Example 68], for which the EC50 was 100 to 400 nM.
Still for that read-out and setting: with `CC(C)[C@H](NC(=O)OC(C)(C)C)C(=O)OC[C@]1(O)CC2CC[C@@H](C1)[C@H]2S(=O)(=O)c1cc(C(=O)Nc2cc(F)c(F)c(F)c2)ccc1Cl` [Example 265] the figure was 100 to 400 nM; with `O=C(Nc1ccc(F)c(Cl)c1)c1ccc(Cl)c(S(=O)(=O)[C@H]2CC[C@H](O)CC2)c1` [Example 52], 100 to 400 nM; with `CC(C)[C@H](NC[C@]1(O)C2CCC1C[C@@H](S(=O)(=O)c1cc(C(=O)Nc3cc(F)c(F)c(F)c3)ccc1Cl)C2)C(=O)O` [Example 344], over 400 nM.
Same read-out and setting: with `O=C(Nc1cc(F)c(F)c(F)c1)c1ccc(Cl)c(S(=O)(=O)C[C@@H]2CC3CC2[C@H](O)[C@@H]3O)c1` (stereo partly drawn) [Example 242] the figure was 100 to 400 nM; with `O=C(Nc1cc(F)c(F)c(F)c1)c1ccc(Cl)c(S(=O)(=O)C[C@H]2CC3CC2[C@H](O)[C@@H]3O)c1` (stereo partly drawn) [Example 241], under 100 nM; with `O=C(Nc1ccc(F)c(F)c1)c1ccc(Cl)c(S(=O)(=O)[C@H]2C3CC[C@H]2C[C@](O)(CO)C3)c1` [Example 127], under 100 nM.
The same measure, in the same setting: the result for `O=C(Nc1cc(F)c(F)c(F)c1)c1ccc(Cl)c(S(=O)(=O)C2CC[C@H](O)[C@H](O)C2)c1` (stereo partly drawn) [Example 70] reads 100 to 400 nM.
As for `O=C(Nc1cc(F)c(F)c(F)c1)c1ccc(Cl)c(S(=O)(=O)[C@H]2CC3CCC(C2)[C@]3(O)C[N+]2([O-])C[C@@H](O)[C@H](O)C2)c1` [Example 343], the EC50 lay in the range of 100 to 400 nM.
The same measure, in the same setting: with `COC(=O)C1OCN(Cc2ccccc2)[C@]12CC1CC[C@@H](C2)[C@H]1S(=O)(=O)c1cc(C(=O)Nc2cc(F)c(F)c(F)c2)ccc1Cl` (stereo partly drawn) [Example 212] the figure was over 400 nM; with `CS(=O)(=O)OC[C@]1(O)CC2CC[C@@H](C1)[C@H]2S(=O)(=O)c1cc(C(=O)Nc2cc(F)c(F)c(F)c2)ccc1Cl` [Example 142], under 100 nM.
On the same count and under the same terms, the result for `O=C(Nc1cc(F)c(F)c(F)c1)c1ccc(Cl)c(S(=O)(=O)C2CC=CCC2)c1` (stereo not drawn) [Example 20] reads 100 to 400 nM; that for `Cc1c(NC(=O)c2ccc(Cl)c(S(=O)(=O)[C@]3(C)CC[C@@H](O)CC3)c2)cc(F)c(F)c1F` [Example 19], over 400 nM.
The same measure, in the same setting: the result for `O=C(Nc1cc(F)c(F)c(F)c1)c1ccc(Cl)c(S(=O)(=O)CCC2CCOCC2)c1` [Example 123] reads 100 to 400 nM.
With `O=C(Nc1cc(F)c(F)c(F)c1)c1ccc(Cl)c(S(=O)(=O)[C@H]2C3CCC2C[C@H](CN2CCOCC2)C3)c1` [Example 337], the EC50 lay within 100 to 400 nM.

The values above are taken from patent publication US10538532B2, “Hepatitis B antiviral agents” (ENANTA PHARMACEUTICALS, INC., priority 2016, dated 2020).
